Converted amounts (≈) assume the structure as drawn.
Tests used:
HEPG2 cell line = assay: Cytotoxicity study, CellTiter-Glo cell viability; type: cell-based, Human; details: HEPG2, 48 hours incubation
Description: Reagents and Instrumentation: Human liver hepatocellular carcinoma (HEPG2) cell line was purchased (ATCC) and cultured in 75 cm2 flasks (CellStar). Cells were grown in DMEM/High Glucose (Hyclone, #SH3024301) media to which non-essential amino acids (Hyclone, #SH30238.01), 10 mM HEPES (Hyclone, #SH302237.01), 5×106 units of penicillin and streptomycin (Hyclone, #SV30010), and 10% of heat inactivated fetal bovine serum (Gibco, #10082147) were added. Cells were harvested using 0.05% Trypsin (Hyclone, #SH3023601), which disrupts the cell monolayer and proteolytically cleaves the bonds between the cells and flask. The cell viability assay was evaluated using CellTiter-Glo™ Luminescent Cell Viability Assay Kit (Promega, Madison, Wis.) which contains luciferase and all its substrate except ATP. The controls for the cytotoxicity assay used were (E)-10-(bromotriphenylphosphoranyl)decyl 4-(4-(tert-butyl)phenyl)-4-oxobut-2-enoate (400 μM in DMSO, positive control) and DMSO (negative control). Cell culture was performed in a Baker Company Class II Biological Safety Cabinet. All luminescence readings were performed on a Tecan Infinite M1000 plate reader. Small volume transfers were performed on the Tecan Freedom EVO liquid handling system with a 100 nL pin tool transfer (V&P Scientific). Serial dilutions were done in 96-well polypropylene plates (Corning, #3365) and assays were conducted in 384-well white optical bottom plates.
Luminescence-Based VDR-Mediated Transcription Assay Protocol: After 48 hours of incubation at 37 °C with 5% CO2, the cells were harvested with 4 mL of 0.05% Trypsin, added to 10 mL of the assay buffer, DMEM/High Modified buffer without phenol red, and spun down for 3 minutes at 1000 rpm. The media was removed and cells were resuspended in the DMEM assay media. To each well, 40 μL of cells were added to yield a final concentration of 15,000 cells per well. The plates were then spun down for 2 minutes at 1000 rpm. After 2 hours, plated cells were treated with 100 nL×4 of small molecules and controls which were added using the pin tool. After 48 hours of incubation at 37 °C with 5% CO2, 20 μL of Cell Titer-Glo™ Luminescence Assay Kit (cytotoxicity assay) were added and luminescence was read. Controls were measured within each plate to determine the z′ factor (Equation 1) and to enable data normalization. Three independent experiments were performed in quadruplicate and data was analyzed using nonlinear regression with variable slope (GraphPrism, Equation 2). The luminescence intensity of control (untreated) cells was taken as 100% viability, and the relative cell viability compared to control was calculated. Data are presented as the means±SEM of a series of three experiments.

[1] = Microsomal stability assay, human liver microsomes; type: in vitro ADME; details: 10 μM test compound, 0.5 mg/mL protein, 37° C.
Description: (§1) 4 μL of 1 mM test compound at a final concentration of 10 μM dissolved in DMSO/ACN/Methanol/Ethanol was preincubated at 37° C. for 5 minutes on a digital heating shaking dry bath (Fischer scientific, Pittsburgh, Pa.) in a mixture containing 282 μL of water, 80 μL of phosphate buffer (0.5 M, pH 7.4), 20 μL of NADPH Regenerating System Solution A (BD Bioscience, San Jose, Calif.) and 4 μL of NADPH Regenerating System Solution B (BD Bioscience, San Jose, Calif.) in a total volume of 391.2 μL. Following preincubation, the reaction was initiated by addition of 8.8 μL of either human liver microsomes (BD Gentest, San Jose, Calif.), mouse liver microsomes (Life technologies, Rockford, Ill.), at a protein concentration of 0.5 mg/mL. Aliquots of 50 μL were taken at time intervals of 0 (without microsomes), 10, 20, 30, 40, 50 and 60 minutes. Each aliquot was added to 100 μL of cold acetonitrile solution containing 1 μM/2 μM internal standard. This was followed by sonication for 10 seconds and centrifugation at 10,000 rpm for 5 minutes. 100 μL of the supernatant was transferred into Spin-X HPLC filter tubes (Corning Incorporated, NY) and centrifuged at 13,000 rpm for 5 minutes. […] The ratio of the peak areas of the internal standard and test compound was calculated for every time point and the natural log of the ratio were plotted against time to determine the linear slope (k). […] All experiments were repeated three times in duplicates.

[2] = Microsomal stability assay, mouse liver microsomes; type: in vitro ADME; details: 10 μM test compound, 0.5 mg/mL protein, 37° C.; for half-life at 10 μM: mouse, liver microsomes, pH 7.4, read-out: Half-life (min) (MLM)
Description: as §1

[3] = test system: METH-impaired PPI in C57/B6 mice; assay: PPI test, methamphetamine-impaired prepulse inhibition; type: in vivo, mouse; details: mice, compound 10 mg/kg i.p. 15 min before METH 2 mg/kg i.p.
Description: All animal experiments conducted at NTU were approved by the Institutional Animal Care and Use Committee of College of Medicine, National Taiwan University. C57/B6 (8-10 weeks) mice were used for the PPI test and Wistar rats (8-9 weeks) were used in the migraine model. Animals were housed in an animal room with a 12-h light/12-h dark cycle and free access to food and water.
The PPI test was conducted with a PPI apparatus (SR-LAB, San Diego Instruments, San Diego, Calif.) consisting of a startle chamber equipped with various programming acoustic stimulations. After acclimation, the mouse was gently placed in the startle chamber for a 4 min acclimation period with a background noise of 65 dB, which continued throughout the whole PPI test session. One PPI test session consisted of 4 types of startle trials, including the trial with the startle pulse (115 dB) alone (PULSEALONE; 115 dB, 20 ms), two trials with the startle pulse paired with 71 and 77 dB prepulses, respectively (PREPULSE+PULSE; 71 dB+115 dB and 77 dB+115 dB), and the trial without stimulus (NOSTIM; background 65 dB only). A test session started and ended, respectively, with four NOSTIM trials and four PULSEALONE trials. In between, each of the four types of trials was presented 14 times randomly, that is, 56 trials were given in a test session. The intertrial interval was given randomly from 5 to 20 s. In the PREPULSE+PULSE trial, a 71 or 77 dB prepulse was given 120 ms before the 115 dBpulse. The magnitude of PPI (PPI %) was determined, after summarizing the startle responses in PULSEALONE and PREPULSE+PULSE trials, according to the equation (PULSEALON−PREPULSE+PULSE)/PULSEALONE×100%. The tested compound or vehicle was given to the animal for 15 min, followed by methamphetamine (2 mg/kg). The PPI test was conducted 10 min after injection of methamphetamine. Data were expressed as the mean±S.E.M. Statistical comparisons among groups were analyzed by ANOVA with Tukey post hoc test, and differences between groups were analyzed by Student's t-test. Two-way ANOVA with Bonferroni's post hoc test was used to analyze differences in the time courses of locomotor activity among groups. Differences were considered significant if P<0.05.
Methamphetamine and apomorphine were dissolved in normal saline for i.p. And s.c. Injections, respectively. Tested compounds and haloperidol, when given by i.p. Injection, were dissolved in a vehicle containing 20% dmso, 20% Cremophor® el (polyoxyethylene castor, sigma-aldrich) and 60% normal saline. Furosemide was dissolved (20 nmole/μL) in dimethylsulfoxide for intra-cerebellar microinjection the i.p. or s.c. Injection volume was 10 mL/kg.

[4] = Solubility of compounds in DI water; type: physicochemical; details: thermodynamic from solid; 2 mg in 2 mL DI water, sonicated at 60° C. for 2 hours, cooled to room temperature, filtered
Description: The solubility of the compounds was examined by sonicating 2 mg of each respective compound in 2 mL of DI water at 60° C. for 2 hours. Solutions were cooled to room temperature and then filtered using a syringe filter. The resultant solutions were injected into a mass spectrometer using a SIM method, calibrated to the respective retention times and mass units of each compound. Calibration curves using standard solutions (5 data points) of each compound dissolved in methanol were used to calculate the unknown aqueous concentrations of each compound.

[5] = Half-life in liver microsomes (Example 4); type: in vitro ADME; details: rat and human liver microsomes, species of the value not stated
Text: Metabolic pathways that may disrupt the activity of compounds with aryl methoxy groups were investigated.

Structure (SMILES) | toxicity at 400 μM (HEPG2 cell line) | % left after 1 hr. (HLM) [1] [%] | Half-life (min) (HLM) [1] | % left after 1 hr. (MLM) [2] [%] | Half-life (min) (MLM) [2] | rescue of METH-impaired PPI [3] | half-life at 10 μM [2] [min] | solubility at 2 h [4] [µg/mL] | half-life at 10 μM ([1]; human, liver microsomes, pH 7.4, read-out: Half-life (min) (HLM)) | rescue of METH-impaired PPI ([3]; listed as 1-29) | half-life [5] [h]
COc1ccc(-n2nc3c4ccc(Br)cc4[nH]cc-3c2=O)cn1 [DK-II-48-1, 7-Bromo-2-(6-methoxypyridin-3-yl)-2,5-dihydro-3H-pyrazolo[4,3-c]quinolin-3-one] | non-toxic | 93.4 ± 0.11 | 727.7 ± 115 | 93.12 ± 0.22 | 680.6 ± 114 |  |  |  |  |  | 
[2H]C([2H])([2H])Oc1cccc(-n2nc3c4cc(Cl)ccc4[nH]cc-3c2=O)c1 [DK-I-59-1, 8-Chloro-2-(3-methoxy-d3-phenyl)-2,5-dihydro-3H-pyrazolo[4,3-c]quinolin-3-one] | non-toxic | 93 ± 0.09 | 649 ± 81 | 76.6 ± 0.11 |  | effective | 166 ± 7.5 |  |  |  | 
[2H]C([2H])([2H])Oc1ccc(-n2nc3c4ccc(Br)cc4[nH]cc-3c2=O)cc1 [DK-I-58-1, 7-Bromo-2-(4-methoxy-d3-phenyl)-2,5-dihydro-3H-pyrazolo[4,3-c]quinolin-3-one] | non-toxic | 81.5 ± 0.11 | 204.6 ± 10 | 73.8 ± 0.15 |  |  | 140 ± 7.18 | 9.2 (≈ 24.7 µM) |  |  | 
[2H]C([2H])([2H])Oc1ccc(-n2nc3c4ccc(OC([2H])([2H])[2H])cc4[nH]cc-3c2=O)cc1 [DK-I-60-3, 7-Methoxy-d3-2-(4-methoxy-d3-phenyl)-2,5-dihydro-3H-pyrazolo[4,3-c]quinolin-3-one] | non-toxic | 91.51 ± 0.18 | 780.73 ± 238 | 93.08 ± 0.19 | 846.85 ± 276 |  |  | 16 (≈ 48.9 µM) |  |  | 
[2H]C([2H])([2H])Oc1ccc2c3nn(-c4ccc(OC)cc4)c(=O)c-3c[nH]c2c1 [RV-I-029, 7-Methoxy-d3-2-(4-methoxyphenyl)-2,5-dihydro-3H-pyrazolo[4,3-c]quinolin-3-one] |  | 95.35 ± 1 |  | 93.17 ± 016 | 857.8 ± 235 |  |  |  | 2970 ± 742 | effective | > 50
